Measurements taken from patent US11306094B2, “Stable formulations of 5,10-methylene-(6R)-tetrahydrofolic acid” (MERCK & CIE, priority 2016, dated 2022).
Structures can show the parent of a compound that is named as a salt. Where two headings read alike, the source gives them in different places.

Experiments:
[1] = physiological common salt solution, +25° C., cited from earlier work
[2] = Suspension equilibration stability; format: physicochemical
Description: (a) Suspension equilibration of (6R)-5,10-CH2-THF hemisulfate salt as starting material at temperatures other than room temperature in a variety of solvents and mixture are summarized in Table 10: […]

[3] = Crystal form stability by XRPD (85% ethanol; high temperature/low pressure); format: physicochemical
Method: (§1) (b) Stability in 85% Ethanol at Room Temperature (6R)-5,10-CH2-THF hemisulfate salt (3.01 g) was dispersed in 100 ml 85% EtOH at room temperature and stirred for 5 h, then filtered and dried at 30° C. and 8 mbar for 12 hours (over night). […] (c) Stability at High Temperature/Low Pressure (6R)-5,10-CH2-THF hemisulfate salt (2.17 g) was placed in a drying chamber at 65° C. and 8 mbar for 21 h. […] (d) Long-Term Stability of (6R)-5,10-CH2-THF Hemisulfate Salt and Pharmaceutical Composition Thereof In order to determine the long-term stabilities of (6R)-5,10-CH2-THF hemisulfate salt, the salts were stored in air at 25° C. and at 60% relative humidity. The content of (6R)-5,10-CH2-THF hemisulfate salt remaining was measured by HPLC at periodic intervals and is given by comparison with the initial value (% rel.).

[4] = Long-term stability of hemisulfate salt, HPLC content; format: physicochemical; conditions: salt stored in air, 25° C./60% rh
Method: as §1

Clinical safety = format: in vivo; conditions: patients, doses of up to 200 mg/m^2
[5] = Phase I/II study ISO-CC-002, pharmacokinetics/pharmacodynamics versus Levoleucovorin; format: in vivo; conditions: compared to Levoleucovorin, 32 colon cancer patients
Method: (b) In a single-blinded, randomized phase I/II study (ISO-CC-002) performed on 32 patients diagnosed with colon cancer the pharmacokinetic and pharmacodynamic properties of (6R)-5,10-CH2-THF hemisulfate compared to Levoleucovorin in tumor tissue, adjacent mucosa and blood plasma were investigated. The study was performed at the Sahlgrenska University Hospital in Goteborg, Sweden. […] The concentrations of methylenetetrahydrofolate and tetrahydrofolate in both tumor and adjacent mucosa were also much higher after administration of (6R)-5,10-CH2-THF hemisulfate than those obtained after administration of Levoleucovorin.

[6] = Comparative stability hemisulfate versus sulfate salt (Example 4-1); format: physicochemical
Method: Stability studies were performed as in the examples above. The conditions for the studies are provided with each data set provided. Some of the data in this example is from previous examples herein, but are reproduced here to provide some kind of a side-by-side nature of the presentation of the results.

[7] = Long-term stability of sulfate salt, HPLC content; format: physicochemical
Method: In order to compare the long-term stabilities of (6R)-5,10-CH2-THF hemisulfate salt to the long-term stabilities of (6R)-5,10-CH2-THF sulfate salt prepared according to EP 0 537 492 B1, stability data for (6R)-5,10-CH2-THF sulfate salt has been generated at various temperatures and humidities. (a) Stability of (6R)-5,10-CH2-THF Sulfate (6R)-5,10-CH2-THF sulfate salt was prepared according to literature procedures (EP 0 537 492 B1) and stored for 15 months at −20° C. Subsequently, samples of the product were stored at 5° C. resp. at 25° C. and 60% relative humidity resp. at 40° C. and 75% relative humidity. The content of (6R)-5,10-CH2-THF sulfate salt remaining in the sample was measured by HPLC at periodic intervals. The content of (6R)-5,10-CH2-THF sulfate was compared to the initial value at the time of preparation (% rel.).

[8] = Content of degradation product 10-formyltetrahydrofolic acid in sulfate salt, HPLC; format: physicochemical
Method: (b) Content of the degradation product 10-formyl-(6R)-tetrahydrofolic acid (6R)-5,10-CH2-THF sulfate salt was prepared according to literature procedures (EP 0 537 492 B1) and stored for 15 months at −20° C. Subsequently, samples of the product were stored at 5° C. resp. at 25° C. and 60% relative humidity resp. at 40° C. and 75% relative humidity. The content of 10-formyltetrahydrofolic acid, a major degradation product, was measured by HPLC at periodic intervals and disclosed as absolute values (% w/w).

[9] = after 15 months at −20° C., then 5° C., 0 months
[10] = after 15 months at −20° C., then 5° C., 6 months
[11] = after 15 months at −20° C., then 25° C./60% rh, 0 months
[12] = after 15 months at −20° C., then 25° C./60% rh, 6 months
[13] = after 15 months at −20° C., then 40° C./75% rh, 0 months
[14] = after 15 months at −20° C., then 40° C./75% rh, 6 months

Nc1nc2c(c(=O)[nH]1)N1CN(c3ccc(C(=O)N[C@@H](CCC(=O)O)C(=O)O)cc3)C[C@H]1CN2 (mixture of isomers) [5,10-methylene-(6R,S)-tetrahydrofolic acid]
% relative stability ([1]; with the exclusion of air, 0 hours): 100.0% | % relative stability ([1]; with the exclusion of air, 4.0 hours): 58.0% | % relative stability ([1]; with the exclusion of air, 24.0 hours): 38.0% | % relative stability ([1]; with the exclusion of air, 26.0 hours): 18.0% | % relative stability ([1]; with the exclusion of air, 48.0 hours): 8.0% | % relative stability ([1]; without the exclusion of air, 0 hours): 100.0% | % relative stability ([1]; without the exclusion of air, 4.0 hours): 84% | % relative stability ([1]; without the exclusion of air, 24.0 hours): 12.0% | % relative stability ([1]; without the exclusion of air, 26.0 hours): 8.0% | % relative stability ([1]; without the exclusion of air, 48.0 hours): 6.0%

Nc1nc2c(c(=O)[nH]1)N1CN(c3ccc(C(=O)N[C@@H](CCC(=O)O)C(=O)O)cc3)C[C@H]1CN2 [(6R)-5,10-CH2-THF hemisulfate salt, N-[4-[(6aR)-3-amino-1,2,5,6,6a,7-hexahydro-1-oxoimidazo[1,5-f]pteridin-8(9H)-yl]benzoyl]-L-glutamic acid]
Observation (suspension equilibration stability) ([2]; 2-PrOH with ~2 mM L-ascorbic acid, 40° C., 3 d): No change | Observation (suspension equilibration stability) ([2]; AcOH saturated with L-ascorbic acid, 50° C., 1 d): No change | Observation (suspension equilibration stability) ([2]; AcOH saturated with L-ascorbic acid, 50° C., 5 d): No change | Observation (suspension equilibration stability) ([2]; H2O, 5° C., 6 d): No change | Observation (suspension equilibration stability) ([2]; MeCN saturated with L-ascorbic acid, 50° C., 5 d): No change | Observation (suspension equilibration stability) ([2]; MeOH/formic acid 1:1, 50° C., 2 h): No change | Observation (suspension equilibration stability) ([2]; PEG4500/EtOH 1:9 saturated with L-ascorbic acid, 50° C., 7 d): No change | Observation (suspension equilibration stability) ([2]; THF with ~2 mM L-ascorbic acid, 40° C., 3 d): No change | Observation (suspension equilibration stability) ([2]; formic acid/THF 1:3, 10-20° C., 6 d): No change | X-ray pattern of crystal form Type 1 (XRPD) ([3]; drying chamber 65° C. and 8 mbar for 21 h): remained unchanged | X-ray pattern of crystal form Type 1 (XRPD) ([3]; stirred in 85% EtOH at room temperature for 5 h): remained unchanged | (6R)-5,10-CH2—THF hemisulfate (% rel) ([4]; 0 months): 100.0 % rel | (6R)-5,10-CH2—THF hemisulfate (% rel) ([4]; 3 months, listed as (6R)-5,10-CH2—THF hemisulfate (batch 1)): 99.7 % rel | (6R)-5,10-CH2—THF hemisulfate (% rel) ([4]; 3 months, listed as (6R)-5,10-CH2—THF hemisulfate (batch 2)): 99.9 % rel | (6R)-5,10-CH2—THF hemisulfate (% rel) ([4]; 3 months, listed as (6R)-5,10-CH2—THF hemisulfate (batch 3)): 99.5 % rel | (6R)-5,10-CH2—THF hemisulfate (% rel) ([4]; 6 months): 99.5 % rel | (6R)-5,10-CH2—THF hemisulfate (% rel) ([4]; 6 months, listed as (6R)-5,10-CH2—THF hemisulfate (batch 2)): 99.9 % rel | (6R)-5,10-CH2—THF hemisulfate (% rel) ([4]; 9 months, listed as (6R)-5,10-CH2—THF hemisulfate (batch 1)): 99.6 % rel | (6R)-5,10-CH2—THF hemisulfate (% rel) ([4]; 9 months, listed as (6R)-5,10-CH2—THF hemisulfate (batch 2)): 100.0 % rel | (6R)-5,10-CH2—THF hemisulfate (% rel) ([4]; 9 months, listed as (6R)-5,10-CH2—THF hemisulfate (batch 3)): 99.4 % rel | (6R)-5,10-CH2—THF hemisulfate (% rel) ([4]; 12 months, listed as (6R)-5,10-CH2—THF hemisulfate (batch 1)): 99.2 % rel | (6R)-5,10-CH2—THF hemisulfate (% rel) ([4]; 12 months, listed as (6R)-5,10-CH2—THF hemisulfate (batch 2)): 99.7 % rel | (6R)-5,10-CH2—THF hemisulfate (% rel) ([4]; 12 months, listed as (6R)-5,10-CH2—THF hemisulfate (batch 3)): 99.1 % rel | (6R)-5,10-CH2—THF hemisulfate (% rel) ([4]; 18 months, listed as (6R)-5,10-CH2—THF hemisulfate (batch 1)): 99.2 % rel | (6R)-5,10-CH2—THF hemisulfate (% rel) ([4]; 18 months, listed as (6R)-5,10-CH2—THF hemisulfate (batch 2)): 99.4 % rel | (6R)-5,10-CH2—THF hemisulfate (% rel) ([4]; 18 months, listed as (6R)-5,10-CH2—THF hemisulfate (batch 3)): 99.0 % rel | (6R)-5,10-CH2—THF hemisulfate (% rel) ([4]; 24 months, listed as (6R)-5,10-CH2—THF hemisulfate (batch 1)): 99.4 % rel | (6R)-5,10-CH2—THF hemisulfate (% rel) ([4]; 24 months, listed as (6R)-5,10-CH2—THF hemisulfate (batch 2)): 99.4 % rel | (6R)-5,10-CH2—THF hemisulfate (% rel) ([4]; 24 months, listed as (6R)-5,10-CH2—THF hemisulfate (batch 3)): 99.0 % rel | (6R)-5,10-CH2—THF hemisulfate (% rel) ([4]; 36 months, listed as (6R)-5,10-CH2—THF hemisulfate (batch 1)): 98.5 % rel | (6R)-5,10-CH2—THF hemisulfate (% rel) ([4]; 36 months, listed as (6R)-5,10-CH2—THF hemisulfate (batch 2)): 99.0 % rel | safety (Clinical safety): safe | concentrations of methylenetetrahydrofolate and tetrahydrofolate in tumor and adjacent mucosa [5]: much higher | exposure and peak plasma concentrations of methylenetetrahydrofolate [5]: substantially greater | stability compared with the sulfate salt ([6]; 3 batches, various temperatures): remarkably more stable | stability at elevated temperature ([6]; +40° C. and relative humidity of 75%): excellent stability

Nc1nc2c(c(=O)[nH]1)N1CN(c3ccc(C(=O)N[C@@H](CCC(=O)O)C(=O)O)cc3)C[C@H]1CN2 [(6R)-5,10-CH2-THF sulfate salt, 5,10-methylene-(6R)-tetrahydrofolic acid]
(6R)-5,10-CH2—THF sulfate (% rel.) [7, 9]: 98.7 % rel. | (6R)-5,10-CH2—THF sulfate (% rel.) [7, 10]: 97.3 % rel. | (6R)-5,10-CH2—THF sulfate (% rel.) [7, 11]: 98.7 % rel. | (6R)-5,10-CH2—THF sulfate (% rel.) [7, 12]: 95.5 % rel. | (6R)-5,10-CH2—THF sulfate (% rel.) [7, 13]: 98.7 % rel. | (6R)-5,10-CH2—THF sulfate (% rel.) [7, 14]: 95.0 % rel. | (6R)-5,10-CH2—THF sulfate (% rel.) ([7]; −20° C., 0 months): 100.0 % rel. | (6R)-5,10-CH2—THF sulfate (% rel.) ([7]; −20° C., 15 months): 98.7 % rel. | 10-formyltetrahydrofolic acid (% w/w) [8, 9]: 1.37 % w/w | 10-formyltetrahydrofolic acid (% w/w) [8, 10]: 1.47 % w/w | 10-formyltetrahydrofolic acid (% w/w) [8, 11]: 1.37 % w/w | 10-formyltetrahydrofolic acid (% w/w) [8, 12]: 1.89 % w/w | 10-formyltetrahydrofolic acid (% w/w) [8, 13]: 1.37 % w/w | 10-formyltetrahydrofolic acid (% w/w) [8, 14]: 2.36 % w/w | 10-formyltetrahydrofolic acid (% w/w) ([8]; −20° C., 0 months): 0.53 % w/w | 10-formyltetrahydrofolic acid (% w/w) ([8]; −20° C., 15 months): 1.37 % w/w
